The values that follow come from ChEMBL document CHEMBL5380841, “Discovery and Binding Mechanism of Pyrazoloisoquinoline-Based Novel β-Arrestin Inverse Agonists of the Kappa-Opioid Receptor” (J Med Chem, 2023).

The term EC50 denotes the concentration that produces a half-maximal response. Broadly, the Emax is the maximal effect, on the per cent scale that the assay sets. The IC50 is the concentration needed to halve the response being measured. A lower IC50 goes with inhibition by little substance. As a reminder, the inhibition is the percentage by which the read-out fell short of the control. Read a low inhibition as a response near the control. Usually Ki stands for a measure of affinity in units of concentration, obtained from inhibition or displacement.

In data set [1] the target is T1, Kappa-type opioid receptor (Homo sapiens, UniProt P41145). As to the kind of experiment: Inverse agonist activity at human KOR expressed in human HTLA cells assessed as beta arrestin-2 recruitment by ONE-Glo luciferase assay. It is filed as functional, cell-based. Background: Arrestin recruitment assays detect the binding of arrestin to an activated receptor.
T1 sequence (P41145 whole entry): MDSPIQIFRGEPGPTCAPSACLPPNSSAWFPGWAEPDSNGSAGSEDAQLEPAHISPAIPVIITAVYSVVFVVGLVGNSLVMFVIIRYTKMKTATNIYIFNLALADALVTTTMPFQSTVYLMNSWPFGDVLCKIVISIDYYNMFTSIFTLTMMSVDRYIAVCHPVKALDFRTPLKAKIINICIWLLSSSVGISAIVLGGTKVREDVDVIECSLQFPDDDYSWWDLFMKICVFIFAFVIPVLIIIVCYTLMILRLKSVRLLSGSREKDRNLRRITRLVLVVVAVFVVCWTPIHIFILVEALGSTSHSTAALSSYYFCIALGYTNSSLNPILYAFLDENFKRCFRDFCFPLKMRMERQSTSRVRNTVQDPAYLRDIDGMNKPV
For data set [2], the target named is T1, Kappa-type opioid receptor. In words: Inverse agonist activity at human KOR expressed in human HTLA cells assessed as beta arrestin-2 recruitment at 10 uM by ONE-Glo luciferase assay relative to 1-(5-(2-Chlorophenyl)-7,8-dimethoxy-3-(3-methoxybenzyl)-3H-pyrazolo(3,4-c)isoquinolin-1-yl)-N-(3-methoxybenzyl)-methanamine. It is filed as functional, cell-based.

In data set [3] the target is Mu-type opioid receptor (Homo sapiens) (UniProt P35372). As to the kind of experiment: Inverse agonist activity at MOR (unknown origin) expressed in HEK293T cells assessed as beta arrestin-2 recruitment upto 10 uM incubated for 20 mins by NanoBiT assay. It is filed as functional, cell-based.
Mu-type opioid receptor (Homo sapiens), sequence (P35372 whole entry): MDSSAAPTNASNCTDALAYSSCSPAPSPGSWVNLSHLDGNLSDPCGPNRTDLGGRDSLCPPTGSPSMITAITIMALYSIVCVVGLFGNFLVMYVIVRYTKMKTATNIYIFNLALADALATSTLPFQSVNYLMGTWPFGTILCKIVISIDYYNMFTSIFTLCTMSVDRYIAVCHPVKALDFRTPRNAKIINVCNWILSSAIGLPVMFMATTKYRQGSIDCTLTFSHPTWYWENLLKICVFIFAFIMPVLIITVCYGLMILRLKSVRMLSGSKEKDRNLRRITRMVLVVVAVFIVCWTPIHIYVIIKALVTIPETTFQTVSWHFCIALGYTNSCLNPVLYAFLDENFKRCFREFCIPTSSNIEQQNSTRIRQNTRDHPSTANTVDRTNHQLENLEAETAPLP
Data set [4] in a line: Permeability of the compound across blood brain barrier at pH 7.4 at 50 uM incubated for 4 hrs by PAMPA assay. It is filed as ADME. The conditions noted are these: read-out: permeability.
The target of data set [5] is T1, Kappa-type opioid receptor. As to the kind of experiment: Inverse agonist activity at human KOR expressed in human HTLA cells assessed as beta arrestin-2 recruitment upto 10 uM by ONE-Glo luciferase assay. It is filed as functional, cell-based.
Data set [6] deals with T1, Kappa-type opioid receptor. In words: Displacement of [3H]diprenorphine from human KOR expressed in HEK293 cells incubated for 60 mins by liquid scintillation method. It is filed as cell-based. On the technique in general: In a radioligand displacement assay an active substance lowers the binding of a labelled ligand.
Data set [7] deals with Mu-type opioid receptor (Homo sapiens) (UniProt P35372). In words: Displacement of [3H]naltrindole from MOR (unknown origin) upto 1 uM by radioligand binding assay relative to control.
The target in data set [8] is T1, Kappa-type opioid receptor. In words: Displacement of [3H]diprenorphine from human KOR expressed in HEK293 cells assessed as inhibition constant incubated for 60 mins by liquid scintillation method. It is filed as cell-based.
The species entered for the next data set is Homo sapiens. As to the kind of experiment: Selectivity ratio of EC50 for human DOR expressed in human HTLA cells assessed as beta arrestin-2 recruitment to EC50 for human KOR expressed in human HTLA cells assessed as beta arrestin-2 recruitment. It is filed as cell-based.
The target in data set [9] is T2, Delta-type opioid receptor (Homo sapiens, UniProt P41143). As to the kind of experiment: Displacement of [3H]naltrindole from DOR (unknown origin) upto 1 uM by radioligand binding assay relative to control.
T2 sequence (P41143 whole entry): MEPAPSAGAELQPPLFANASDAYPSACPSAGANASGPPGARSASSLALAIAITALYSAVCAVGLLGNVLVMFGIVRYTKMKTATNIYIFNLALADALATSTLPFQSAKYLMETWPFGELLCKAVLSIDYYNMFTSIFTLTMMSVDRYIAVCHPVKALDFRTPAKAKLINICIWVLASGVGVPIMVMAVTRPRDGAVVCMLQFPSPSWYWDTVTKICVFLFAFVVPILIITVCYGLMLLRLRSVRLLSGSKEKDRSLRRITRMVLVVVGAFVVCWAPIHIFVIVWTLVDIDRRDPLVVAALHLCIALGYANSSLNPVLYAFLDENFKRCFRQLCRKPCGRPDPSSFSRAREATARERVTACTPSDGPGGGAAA
In data set [10] the target is T1, Kappa-type opioid receptor. As to the kind of experiment: Displacement of [3H]diprenorphine from human KOR expressed in HEK293 cells assessed as maximum inhibition at 10 uM incubated for 60 mins by liquid scintillation method relative to control. It is filed as cell-based. The settings on record: filed as inverse agonist.
Data set [11] addresses T2, Delta-type opioid receptor. As to the kind of experiment: Inverse agonist activity at human DOR expressed in human HTLA cells assessed as beta arrestin-2 recruitment by ONE-Glo luciferase assay. It is filed as functional, cell-based.
In data set [12] the target is Mu-type opioid receptor (Homo sapiens) (UniProt P35372). As to the kind of experiment: Inverse agonist activity at human MOR assessed as cAMP inhibition pretreated for 5 mins followed by forskolin treatment measured after 15 mins by Glo-Sensor cAMP cell based assay. It is filed as functional. The settings on record: time 20.0 min.
Data set [13] addresses T1, Kappa-type opioid receptor. As to the kind of experiment: Inverse agonist activity at human KOR assessed as cAMP inhibition pretreated for 5 mins followed by forskolin treatment measured after 15 mins by Glo-Sensor cAMP cell based assay. The conditions noted are these: time 20.0 min. It is filed as functional.
Data set [14] has as its target T2, Delta-type opioid receptor. In words: Inverse agonist activity at human DOR assessed as cAMP inhibition pretreated for 5 mins followed by forskolin treatment measured after 15 mins by Glo-Sensor cAMP cell based assay. The settings on record: time 20.0 min. It is filed as functional.

The source made the active and inactive calls. No cut-off for these calls is given here.

`COc1cccc(Cn2nc(CNCCc3cccc(Oc4ccccc4)c3)c3c4cc(OC)c(OC)cc4c(-c4ccccc4Cl)nc32)c1`: in [1], the EC50 was found to be 227 nM. For the same compound, the Emax in [2] was -81.9%. In addition, in data set [3], the result was inactive.

`COc1cc2c(-c3ccccc3Cl)nc3c(c(CNCc4cccc(Oc5ccccc5)c4)nn3CC3CCN(C(=O)OC(C)(C)C)CC3)c2cc1OC`: the EC50 in data set [1] came to 674 nM. Moreover, the Emax in data set [2] is -99.4%. Further, the outcome in [3] was inactive.

As to `COc1cccc(Cn2nc(CNCc3cc4ccccc4[nH]3)c3c4cc(OC)c(OC)cc4c(-c4ccccc4Cl)nc32)c1`, in data set [1], the half-maximal effective concentration (EC50) is 339 nM. Also, the Emax in data set [2] is -98.3%. For the same compound, in data set [3], the outcome was inactive.

For `COc1cc2c(-c3ccccc3Cl)nc3c(c(CNCc4cccc(Oc5ccccc5)c4)nn3CC3CCNCC3)c2cc1OC`, the EC50 in data set [1] is 2670 nM. Also, in data set [2], the Emax was -95.1%. Further, in data set [3], the result was inactive.

As for `CC(=O)[C@H]1CC[C@H]2[C@@H]3CCC4=CC(=O)CC[C@]4(C)[C@H]3CC[C@]12C` [PROGESTERONE], in [4], the Papp at 4 h, 50 µM amounted to 37.8 ×10⁻⁶ cm/s.

Consider `COc1cccc(CCNCc2nn(Cc3cccc(OC)c3)c3nc(-c4ccccc4Cl)c4cc(OC)c(OC)cc4c23)c1`, for which the concentration giving a half-maximal response (EC50) in data set [1] was found to be 1060 nM. Also, the Emax in data set [2] was -72.8%. Further, the result in data set [3] was inactive.

Consider `COc1cccc(CNCc2n[nH]c3nc(-c4ccccc4Cl)c4cc(OC)c(OC)cc4c23)c1`, for which the result in data set [5], in data set [2] and in data set [3] was inactive.

In the case of `COc1cccc(Cn2nc(CNCc3cccc(OCc4ccccc4)c3)c3c4cc(OC)c(OC)cc4c(-c4ccccc4Cl)nc32)c1`, the IC50 in data set [6] stood at 250 nM. The concentration for a half-maximal effect (EC50) turned out to be 9.33 nM in [1] and 207 nM in data set [11]. In addition, the inhibition in [7] amounted to 20%; in data set [9] it was 10%. The Ki in data set [8] was found to be 100 nM. Moreover, the Ratio EC50 in the data set filed under Homo sapiens turned out to be 22. Further, the Emax in data set [2] is -103%. Besides, in data set [3], the outcome was inactive. For the same compound, in data set [10], the Imax was determined as 72%.

For the compound `COc1cccc(Cn2nc(CNCc3cccc4ccccc34)c3c4cc(OC)c(OC)cc4c(-c4ccccc4Cl)nc32)c1`, the EC50 in data set [1] is 430 nM. Moreover, the Emax in data set [2] is -96.7%. Also, the result in data set [3] was inactive.

Regarding `COc1cccc(CNCc2nn(Cc3cccc(OC)c3)c3nc(-c4ccccc4Cl)c4cc(OC)c(OC)cc4c23)c1`, the EC50 in [1] was 127 nM; in data set [11] it was 483 nM. Moreover, the result in data set [12], in [13], in data set [3] and in data set [14] was inactive.

For the compound `COc1cc2c(-c3ccccc3Cl)nc3c(c(CNCc4cccc(Oc5ccccc5)c4)nn3Cc3cccc(Cl)c3)c2cc1OC`, the EC50 in data set [1] stood at 105 nM. The Emax in data set [2] is -101%. In addition, the outcome in data set [3] was inactive.

Consider `COc1cccc(Cn2nc(CNCc3ccc4ccccc4c3)c3c4cc(OC)c(OC)cc4c(-c4ccccc4Cl)nc32)c1`, for which, in data set [1], the half-maximal effective concentration (EC50) came to 94.3 nM. Further, the Emax in data set [2] is -97.6%. Moreover, the result in [3] was inactive.

With `COc1cccc(Cn2nc(CNCc3ccc(Oc4ccccc4)cc3)c3c4cc(OC)c(OC)cc4c(-c4ccccc4Cl)nc32)c1`, the EC50 in data set [1] was found to be 338 nM. In addition, the Emax in data set [2] is -91.8%. Further, in data set [3], the outcome was inactive.

Consider `O=C(Cc1ccc(Cl)c(Cl)c1)N1CCCC[C@H]1CN1CCCC1`, for which the EC50 in data set [1] came out at 10.5 nM. Also, the Emax in data set [2] was -100%.

With `COc1cccc(Cn2nc(CNCc3ccc(OC)c(OC)c3)c3c4cc(OC)c(OC)cc4c(-c4ccccc4Cl)nc32)c1`, in [1], the half-maximal effective concentration (EC50) stood at 643 nM. For the same compound, the Emax in data set [2] is -103%. In data set [3], the result was inactive.

Regarding `COc1cccc(Cn2nc(CNCc3cccc(Oc4ccccc4)c3)c3c4cc(OC)c(OC)cc4c(-c4ccccc4Cl)nc32)c1`, the concentration giving a half-maximal response (EC50) was found to be 9.1 nM in [1] and 49.5 nM in data set [11]. Moreover, the Ratio EC50 in the data set filed under Homo sapiens was determined as 5. For the same compound, the Emax in data set [2] was -100%. Moreover, the outcome in [3] was inactive.

Regarding `COc1ccc(CNCc2nn(Cc3cccc(OC)c3)c3nc(-c4ccccc4Cl)c4cc(OC)c(OC)cc4c23)cc1`, in [1], the half-maximal effective concentration (EC50) came to 103 nM. Moreover, in data set [2], the Emax was -98.2%. In addition, the result in [3] was inactive.

For the compound `COc1cccc(Cn2nc(CNCc3ccccc3Oc3ccccc3)c3c4cc(OC)c(OC)cc4c(-c4ccccc4Cl)nc32)c1`, the half-maximal effective concentration (EC50) in data set [1] came out at 54.5 nM. Further, the Emax in data set [2] is -104%. Also, the result in data set [3] was inactive.

Turning to `COc1cccc(CNCc2nn(Cc3cccc(OC)c3)c3ncc4cc(OC)c(OC)cc4c23)c1`, the outcome in data set [5], in [2] and in [3] was inactive.

In the case of `COc1cccc(Cn2nc(CNCCc3ccc4ccccc4c3)c3c4cc(OC)c(OC)cc4c(-c4ccccc4Cl)nc32)c1`, the EC50 is 69.9 nM in data set [1] and 691 nM in data set [11]. In the data set listed under Homo sapiens, the Ratio EC50 amounted to 10. The Emax in data set [2] was -97.2%. Moreover, the result in [3] was inactive.

As for `COc1cccc(Cn2nc(CNc3ccc4ccccc4c3)c3c4cc(OC)c(OC)cc4c(-c4ccccc4Cl)nc32)c1`, the outcome in [5], in data set [2] and in data set [3] was inactive.

As for `CNC(=C[N+](=O)[O-])NCCSCc1ccc(CN(C)C)o1.Cl` [RANITIDINE HYDROCHLORIDE], the Papp at 4 h, 50 µM in data set [4] came to 0.12 ×10⁻⁶ cm/s.

With `COc1cccc(Cn2nc(CNc3cccc(OC)c3)c3c4cc(OC)c(OC)cc4c(-c4ccccc4Cl)nc32)c1`, the outcome in [5], in data set [2] and in data set [3] was inactive.
